Source: PubChem BioAssay (NCI)
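Compound exposure: 48 hours, 5 concentrations, 96-well plates. GI50 is the concentration that inhibits growth by half. TGI: concentration producing complete growth inhibition.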

How the values were obtained:
Experiment in all cases: NCI tumour cell line growth inhibition, 48 h
LOX IMVI melanoma = tested on: LOX IMVI melanoma
DLD-1 colon = tested on: DLD-1 colon
DMS 114 small cell lung = tested on: DMS 114 small cell lung
DMS 273 small cell lung = tested on: DMS 273 small cell lung
HOP-18 NSCLC = tested on: HOP-18 NSCLC
KM20L2 colon = tested on: KM20L2 colon
M19-MEL melanoma = tested on: M19-MEL melanoma
P388 leukemia = tested on: P388 leukemia
P388/ADR leukemia = tested on: P388/ADR leukemia
SN12K1 renal = tested on: SN12K1 renal
SNB-78 CNS = tested on: SNB-78 CNS
XF 498 CNS = tested on: XF 498 CNS
LXFL 529 NSCLC = tested on: LXFL 529 NSCLC
RXF-631 renal = tested on: RXF-631 renal

Compound CCCCCCCCCCCCCCCCCCOc1ccccc1CC(=O)OCC[N+]1(C)CCCCC1 has a GI50 (LOX IMVI melanoma) of 1.75 µM and a TGI (LOX IMVI melanoma) of 3.18 µM.

With O=C([O-])C[n+]1ccccc1 the TGI (LOX IMVI melanoma) was greater than 100 µM.

With CN(CCCCCl)P(=O)(OCc1ccc([N+](=O)[O-])o1)OC[C@H]1O[C@@H](n2cc(F)c(=O)[nH]c2=O)C[C@@H]1O (stereo partly specified) the TGI (LOX IMVI melanoma) was 12.9 µM.

In the case of NN(CC(=O)O)CC(=O)O, the TGI (LOX IMVI melanoma) is reported as greater than 100 µM.

With Nc1ncnc2nc[nH]c12 the TGI (DLD-1 colon) was greater than 250 µM, the TGI (DMS 114 small cell lung) was greater than 250 µM and the TGI (DMS 273 small cell lung) was greater than 206 µM. The TGI (HOP-18 NSCLC) was greater than 250 µM, the TGI (KM20L2 colon) was greater than 250 µM and the TGI (LOX IMVI melanoma) was greater than 250 µM. It also gave a TGI (M19-MEL melanoma) greater than 250 µM, a TGI (P388 leukemia) greater than 250 µM and a TGI (P388/ADR leukemia) greater than 250 µM. The TGI (SN12K1 renal) was greater than 250 µM, the TGI (SNB-78 CNS) was greater than 158 µM and the TGI (XF 498 CNS) was 20.8 µM.

Compound Nc1ncnc2c1ncn2C=C=CCO has a TGI (LOX IMVI melanoma) greater than 100 µM.

CCOc1ccc(NC(=O)C(=O)CC(=O)c2sc(NNC(C)=O)nc2C)cc1 gave a TGI (DLD-1 colon) greater than 100 µM, a TGI (DMS 273 small cell lung) greater than 100 µM and a TGI (KM20L2 colon) greater than 100 µM. It also gave a TGI (LOX IMVI melanoma) greater than 100 µM, a TGI (LXFL 529 NSCLC) greater than 100 µM and a TGI (M19-MEL melanoma) greater than 100 µM. The TGI (RXF-631 renal) was greater than 100 µM, the TGI (SNB-78 CNS) was greater than 100 µM and the TGI (XF 498 CNS) was greater than 100 µM.

For COc1cc2c(c(O)c1OC)-c1c(cc(OC)c(OC)c1OC)CC(C)C(C)C2 (stereo unspecified), the TGI (LOX IMVI melanoma) was greater than 100 µM.

CC(C)=CCC/C(C)=C/CC/C(C)=C/CC/C(C)=C/C=C/C=C(\C)CC/C=C(\C)CC/C=C(\C)CCC=C(C)C showed a TGI (LOX IMVI melanoma) of 49.9 µM.

Work on CCOC(=O)C1=C(C)OC2(O)C=CC(O)=C3C(=O)N(c4ccccc4)C(=O)C312 (stereo unspecified) yielded a TGI (LOX IMVI melanoma) of 52.9 µM.

Work on C=C1c2ccccc2C(=O)c2c1c1c(C(=O)OC)c(O)ccc1n2Cc1ccccc1 yielded a TGI (LOX IMVI melanoma) of 0.628 µM.
